{
  "source": "patent US20010044382A1",
  "about": "“Herbicide” (priority 1998, published 2001)",
  "assay_type_in_all_cases": "in vivo",
  "key": {"[1]": {"test_system": "Polygonum", "assay": "Pre-emergence test (greenhouse), herbicidal action", "procedure": "(§1) Experiment Description—Pre-emergence Test:\n(§2) The test plants are sown in standard soil in plastics pots under greenhouse conditions. Directly after sowing, the test compounds are applied in aqueous suspension (500 liters of water/ha). The test plants are then grown on in the greenhouse under optimum conditions. The rates of application depend on the optimum doses ascertained under field conditions and greenhouse conditions. The tests are evaluated after 26 days (% action, 100%=plants have died, 0%=no phytotoxic action)."}, "[2]": {"test_system": "Xanthium", "assay": "Pre-emergence test (greenhouse), herbicidal action", "procedure": "as §1, §2"}, "[3]": {"test_system": "Ipomoea", "assay": "Pre-emergence test (greenhouse), herbicidal action", "procedure": "as §1, §2"}, "[4]": {"test_system": "Digitaria", "assay": "Post-emergence test (greenhouse), herbicidal action", "details": "halosulfuron 100 g/ha, after 20 days", "procedure": "(§3) Experiment Description—Post-emergence Test:\n(§4) The test plants are grown to the 2- to 3-leaf stage in plastics pots under greenhouse conditions. A standard soil is used as cultivation substrate. At the 2- to 3-leaf stage, the herbicide is applied to the test plants on its own and as a mixture. The application is carried out using an aqueous suspension of the test compounds in 500 liters of water/ha. The rates of application depend on the optimum doses ascertained under field conditions and greenhouse conditions. The tests are evaluated after 20 days (% action, 100%=plant has died, 0%=no phytotoxic action)."}, "[5]": {"test_system": "Cyperus", "assay": "Post-emergence test (greenhouse), herbicidal action", "details": "primisulfuron 20 g/ha, after 20 days", "procedure": "as §3, §4"}, "[6]": {"details": "atrazine 200 g/ha, after 26 days (Table 5)"}, "[7]": {"details": "atrazine 200 g/ha, after 26 days (Table 7)"}, "[8]": {"details": "terbuthylazine 200 g/ha, after 26 days (Table 4)"}, "[9]": {"details": "terbuthylazine 200 g/ha, after 26 days (Table 6)"}},
  "data": [
    {"molecule": "CCNc1nc(Cl)nc(NC(C)C)n1", "note": "[Atrazine, atrazine]", "values": [
      {"measurement": "% action", "setting": "[1]; [6]", "result": 90, "unit": "%"},
      {"measurement": "% action", "setting": "[2]; [6]", "result": 0, "unit": "%"},
      {"measurement": "% action", "setting": "[2]; [7]", "result": 0, "unit": "%"},
      {"measurement": "% action", "setting": "[3]; [7]", "result": 70, "unit": "%"}
    ]},
    {"molecule": "COc1cc(OC)nc(NC(=O)NS(=O)(=O)c2c(C(=O)O)c(Cl)nn2C)n1", "note": "[Halosulfuron, halosulfuron]", "values": [
      {"measurement": "% action", "setting": "[4]", "result": 25, "unit": "%"}
    ]},
    {"molecule": "O=C(Nc1nc(OC(F)F)cc(OC(F)F)n1)NS(=O)(=O)c1ccccc1C(=O)O", "note": "[Primisulfuron, primisulfuron]", "values": [
      {"measurement": "% action", "setting": "[5]", "result": 90, "unit": "%"}
    ]},
    {"molecule": "CCNc1nc(Cl)nc(NC(C)(C)C)n1", "note": "[Terbuthylazine, terbuthylazine]", "values": [
      {"measurement": "% action", "setting": "[1]; [8]", "result": 60, "unit": "%"},
      {"measurement": "% action", "setting": "[1]; [9]", "result": 60, "unit": "%"},
      {"measurement": "% action", "setting": "[2]; [8]", "result": 0, "unit": "%"},
      {"measurement": "% action", "setting": "[2]; [9]", "result": 0, "unit": "%"},
      {"measurement": "% action", "setting": "[3]; [8]", "result": 30, "unit": "%"},
      {"measurement": "% action", "setting": "[3]; [9]", "result": 30, "unit": "%"}
    ]}
  ]
}
